The source of these data is patent US7160874B2, “Phenylalanine derivatives” (Ajinomoto Co., Inc., priority 1999, dated 2007).

Like-named read-outs stand apart in the source and are kept apart here.

Experiment [1] concerns the target T1, integrin α4β1 (Homo sapiens, UniProt P05556+P13612).
T1 construct: cell strain Jurkat (ATCC TIB-152) of human T cells, known to express integrin α4β1; host or cells: Jurkat (human T cell line)
The experiment is described as follows: VCAM antagonist activity (VCAM-1/α4β1 binding assay). The experiment is classed as cell-based. The procedure: (Test Example) VCAM Antagonist Activity (VCAM-1/α4β1 Binding Assay):
The capacity of a test substance antagonistic to the binding of cell strain Jurkat (ATCC TIB-152) of human T cells, known to express integrin α4β1, to VCAM-1 was determined.
(§1) 100 μl/well of a solution (500 ng/ml) of recombinant human VCAM-1 (R & D systems) solution diluted with buffer A (0.1 M NaHCO3, pH 9.6) was added to a micro titer plate having 96 wells (Nunc Maxisorp). After the incubation at 4° C. overnight, unbound VCAM-1 was removed by washing once with PBS. After completion of the washing, a buffer (buffer B) obtained by diluting Block Ace® (Dainippon Pharmaceutical Co., Ltd.) with PBS to 1/4 concentration was added in an amount of 150 μl/well. After the incubation at room temperature for 1 hour, buffer B was removed and the plate was washed with PBS once.
Jurkat cells were washed with Dulbecco modified Eagle medium (SIGMA, hereinafter referred to as “DMEM”) twice and then incubated in DMEM containing 10 μg/ml of Calcein-AM (Wako Pure Chemical Industries, Ltd.) at 37° C. in dark place for 30 minutes to label with fluorescence. The cells were again suspended in a binding buffer (20 mM HEPES, DMEM containing 0.1% BSA).
(§2) 50 μl of a test substance of various concentrations obtained by the dilution with the binding buffer was added to the plate. Immediately thereafter, 50 μl (final volume: 100 μl/well) of the fluorescent Jurkat cells (4×10^6 cells/ml) were added thereto, and they were incubated at room temperature for 30 minutes. After the shaking on a plate shaker (IKA MTS-4) at 800 rpm for 30 seconds, the solution was immediately removed to remove the unbound cells. The fluorescence quantity of the bound cells remaining in the wells was determined with a fluorescent plate reader (Wallac 1420 ARVO multi-label counter) (filter excitation wave length: 485 nm, emission wave length: 535 nm). The fluorescent strength thus obtained is proportional to the number of Jurkat cells bound to VCAM-1 and remaining on the plate. The binding rate of each test material in various concentrations was determined while the fluorescent strength of the test material-free well was determined to be 100%. The concentration IC50 for the 50% binding inhibition was calculated.
(§3) The activities were classified into group A wherein IC50 was 0.02 μmol/l or below, group B wherein IC50 was higher than 0.02 μmol/l and not above 0.1 μmol/l, group C wherein IC50 was higher than 0.1 μmol/l and not above 2 μmol/l, and group D wherein IC50 was higher than 2 μmol/l and not above 10 μmol/l.

The target in experiment [2] is T2, integrin α4β7 (Homo sapiens, UniProt P13612+P26010).
T2 construct: lymphoma cell strain RPMI-8866 of human B cells, known to express integrin α4β7; endogenous in cells; host or cells: RPMI-8866 (human B lymphoma cell line)
T2 sequence (P13612 34-1032): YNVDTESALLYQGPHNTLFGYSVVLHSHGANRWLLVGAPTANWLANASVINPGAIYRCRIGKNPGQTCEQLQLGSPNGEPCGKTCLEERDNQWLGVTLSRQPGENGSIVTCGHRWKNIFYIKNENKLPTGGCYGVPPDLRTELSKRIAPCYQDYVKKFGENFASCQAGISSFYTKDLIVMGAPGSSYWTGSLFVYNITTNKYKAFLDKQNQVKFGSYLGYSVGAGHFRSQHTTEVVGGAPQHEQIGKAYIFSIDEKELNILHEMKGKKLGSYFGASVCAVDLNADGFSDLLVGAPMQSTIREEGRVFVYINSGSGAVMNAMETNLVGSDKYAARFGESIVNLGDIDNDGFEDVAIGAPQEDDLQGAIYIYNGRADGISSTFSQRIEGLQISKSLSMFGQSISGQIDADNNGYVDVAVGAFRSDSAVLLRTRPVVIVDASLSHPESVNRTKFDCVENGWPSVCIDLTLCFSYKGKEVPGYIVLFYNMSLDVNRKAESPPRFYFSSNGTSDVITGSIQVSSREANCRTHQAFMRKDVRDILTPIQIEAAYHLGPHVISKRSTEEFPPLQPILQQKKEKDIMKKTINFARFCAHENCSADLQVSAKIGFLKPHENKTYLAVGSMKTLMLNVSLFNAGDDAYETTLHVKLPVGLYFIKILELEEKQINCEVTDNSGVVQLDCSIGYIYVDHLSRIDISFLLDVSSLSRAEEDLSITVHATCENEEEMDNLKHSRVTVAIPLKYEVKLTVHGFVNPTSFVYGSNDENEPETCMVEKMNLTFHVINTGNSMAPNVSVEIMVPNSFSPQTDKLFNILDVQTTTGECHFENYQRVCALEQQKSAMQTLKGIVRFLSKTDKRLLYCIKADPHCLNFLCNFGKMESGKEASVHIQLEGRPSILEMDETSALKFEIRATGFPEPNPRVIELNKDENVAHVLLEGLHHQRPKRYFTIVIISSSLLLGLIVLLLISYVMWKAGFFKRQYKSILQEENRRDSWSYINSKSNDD
T2 sequence (P26010 20-798): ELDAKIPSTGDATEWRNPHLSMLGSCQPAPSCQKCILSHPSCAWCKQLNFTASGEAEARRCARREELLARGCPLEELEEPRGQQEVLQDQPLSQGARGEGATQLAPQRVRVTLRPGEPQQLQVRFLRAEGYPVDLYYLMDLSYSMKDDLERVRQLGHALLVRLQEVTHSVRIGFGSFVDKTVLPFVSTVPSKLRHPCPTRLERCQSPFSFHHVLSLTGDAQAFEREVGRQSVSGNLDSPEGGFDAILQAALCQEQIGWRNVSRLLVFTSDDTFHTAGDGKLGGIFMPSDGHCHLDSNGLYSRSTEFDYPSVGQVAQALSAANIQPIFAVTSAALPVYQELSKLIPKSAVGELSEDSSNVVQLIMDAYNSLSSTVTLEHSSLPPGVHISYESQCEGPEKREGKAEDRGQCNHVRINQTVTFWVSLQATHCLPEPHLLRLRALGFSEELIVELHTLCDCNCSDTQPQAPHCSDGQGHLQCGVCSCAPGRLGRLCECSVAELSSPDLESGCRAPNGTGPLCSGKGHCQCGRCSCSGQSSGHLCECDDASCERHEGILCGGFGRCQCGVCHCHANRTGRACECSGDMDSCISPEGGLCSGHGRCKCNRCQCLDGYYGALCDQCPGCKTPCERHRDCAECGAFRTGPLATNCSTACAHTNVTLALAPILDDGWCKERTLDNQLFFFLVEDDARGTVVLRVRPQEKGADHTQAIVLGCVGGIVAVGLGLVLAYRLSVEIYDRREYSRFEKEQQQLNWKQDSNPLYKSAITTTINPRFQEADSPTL
As to the kind of experiment: VCAM antagonistic activity (VCAM-1/α4β7 binding assay). The format is cell-based. The procedure:
(Test Example) VCAM Antagonistic Activity (VCAM-1/α4β7 Binding Assay):
The capacity of a test substance antagonistic to the binding of lymphoma cell strain RPMI-8866 of human B cells, known to express integrin α4β7, to VCAM-1 was determined.
as §1
RPMI-8866 cells were incubated in Dulbecco modified Eagle medium containing 10 μg/ml of Calcein-AM (Wako Pure Chemical Industries, Ltd.) (SIGMA, hereinafter referred to as “DMEM”) at 37° C. for 30 minutes to label with fluorescence. The cells were again suspended in a binding buffer (20 mM HEPES, DMEM containing 0.1% BSA) containing 4 mM of MnCl2.
as §2, with “RPMI-8866” for “Jurkat”
as §3

Where [3] appears, read: Jurkat cells binding to VCAM-1, read-out: VCAM antagonistic activity (IC50) α4β1.
Where [4] appears, read: RPMI-8866 cells binding to VCAM-1, read-out: VCAM antagonistic activity (IC50) α4β7.

T1 sequence (P05556 21-798, one chain of several): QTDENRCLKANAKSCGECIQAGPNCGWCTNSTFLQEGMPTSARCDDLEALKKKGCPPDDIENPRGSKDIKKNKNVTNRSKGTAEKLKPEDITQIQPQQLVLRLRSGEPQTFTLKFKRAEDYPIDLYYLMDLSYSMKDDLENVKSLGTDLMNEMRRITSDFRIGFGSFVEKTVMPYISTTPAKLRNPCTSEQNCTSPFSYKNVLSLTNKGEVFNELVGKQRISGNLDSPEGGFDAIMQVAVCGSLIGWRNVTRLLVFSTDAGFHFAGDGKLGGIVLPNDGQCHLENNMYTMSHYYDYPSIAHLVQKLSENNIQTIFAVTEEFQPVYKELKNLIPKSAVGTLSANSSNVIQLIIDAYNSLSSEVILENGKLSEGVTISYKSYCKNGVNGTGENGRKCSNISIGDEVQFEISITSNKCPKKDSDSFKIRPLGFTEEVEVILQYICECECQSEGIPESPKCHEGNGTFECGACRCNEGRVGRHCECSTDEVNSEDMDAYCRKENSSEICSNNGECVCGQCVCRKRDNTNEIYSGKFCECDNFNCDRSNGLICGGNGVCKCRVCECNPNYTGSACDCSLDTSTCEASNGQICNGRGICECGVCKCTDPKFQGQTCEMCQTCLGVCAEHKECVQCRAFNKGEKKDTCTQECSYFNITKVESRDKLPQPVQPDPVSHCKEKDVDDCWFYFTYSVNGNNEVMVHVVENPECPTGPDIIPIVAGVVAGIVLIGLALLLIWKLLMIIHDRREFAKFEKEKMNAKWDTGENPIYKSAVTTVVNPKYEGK

As for `CCC(CC)(C(=O)N[C@@H](Cc1ccc(OCc2c(Cl)cccc2Cl)cc1)C(=O)O)C(=O)N1CC[C@@H](NC(=O)C(F)(F)F)C1` [Example 63], the IC50 in experiment [1] (setting [3]) lay within 100 to 2000 nM; in experiment [2] (setting [4]), 20 to 100 nM.

Take `CCC(CC)(C(=O)N[C@@H](Cc1ccc(OCc2c(Cl)cccc2Cl)cc1)C(=O)O)C(=O)N1CC[C@@H](NC)C1` [Example 64]: the values for the half-inhibitory concentration (IC50) in experiment [1] (setting [3]) and in experiment [2] (setting [4]) were 100 to 2000 nM and 20 to 100 nM, respectively.

As for `CCC(CC)(C(=O)N[C@@H](Cc1ccc(OCc2c(Cl)cccc2Cl)cc1)C(=O)O)C(=O)N1CC[C@H](O)C1` [Example 65], the IC50 in experiment [1] (setting [3]) was 100 to 2000 nM; in experiment [2] (setting [4]) it was under 20 nM.

Take `CCC(CC)(C(=O)N[C@@H](Cc1ccc(OCc2c(Cl)cccc2Cl)cc1)C(=O)O)C(=O)N1CC[C@H](N)C1` [Example 66]: the results for the IC50 in experiment [1] (setting [3]) and in experiment [2] (setting [4]) were 100 to 2000 nM and 20 to 100 nM, respectively.

Consider `CCC(CC)(C(=O)N[C@@H](Cc1ccc(OCc2c(Cl)cccc2Cl)cc1)C(=O)O)C(=O)N1CCC[C@H]1C(N)=O` [Example 67], for which the IC50 in experiment [1] (setting [3]) lay in the range of 100 to 2000 nM; in experiment [2] (setting [4]), 20 to 100 nM.

On to `CCC(CC)(C(=O)N[C@@H](Cc1ccc(OCc2c(Cl)cccc2Cl)cc1)C(=O)O)C(=O)N1CCC(=O)C1` [Example 69], for which the IC50 is 100 to 2000 nM in experiment [1] (setting [3]) and under 20 nM in experiment [2] (setting [4]).

Take `CCC(CC)(C(=O)N[C@@H](Cc1ccc(OCc2c(Cl)cccc2Cl)cc1)C(=O)O)C(=O)N1CCC[C@@H]1C(N)=O` [Example 70]: the half-inhibitory concentration (IC50) in experiment [1] (setting [3]) is 20 to 100 nM; in experiment [2] (setting [4]), under 20 nM.

As for `CCC(CC)(C(=O)N[C@@H](Cc1ccc(OCc2c(Cl)cccc2Cl)cc1)C(=O)O)C(=O)N1CCC[C@H]1C(=O)NC` [Example 72], the IC50 was 20 to 100 nM in experiment [1] (setting [3]) and under 20 nM in experiment [2] (setting [4]).

Consider `CCC(CC)(C(=O)N[C@@H](Cc1ccc(OCc2c(Cl)cccc2Cl)cc1)C(=O)O)C(=O)N1CC[C@@H](N)C1` [Example 76], for which the results for the IC50 in experiment [1] (setting [3]) and in experiment [2] (setting [4]) were 100 to 2000 nM and under 20 nM, respectively.

`CCC(CC)(C(=O)N[C@@H](Cc1ccc(OCc2c(Cl)cccc2Cl)cc1)C(=O)O)C(=O)N1CCC[C@@H](O)C1` [Example 77]: the concentration for half-maximal inhibition (IC50) in experiment [1] (setting [3]) is 100 to 2000 nM; in experiment [2] (setting [4]), under 20 nM.

As for `CCC(CC)(C(=O)N[C@@H](Cc1ccc(OCc2c(Cl)cccc2Cl)cc1)C(=O)O)C(=O)N1CCC1` [Example 78], the results for the IC50 in experiment [1] (setting [3]) and in experiment [2] (setting [4]) were 100 to 2000 nM and under 20 nM, respectively.

Take `CCC(CC)(C(=O)N[C@@H](Cc1ccc(OCc2c(Cl)cccc2Cl)cc1)C(=O)O)C(=O)N1CC(Br)C(Br)C1` (stereo partly drawn) [Example 79, N-(2-{[(trans-3,4-dibromopyrrolidine)-1-yl]carbonyl}-2-ethyl-butanoyl)-O-(2,6-dichlorobenzyl)-L-tyrosine]: the IC50 is 100 to 2000 nM in experiment [1] and under 20 nM in experiment [2].

Consider `CCC(CC)(C(=O)N[C@@H](Cc1ccc(OCc2c(Cl)cccc2Cl)cc1)C(=O)O)C(=O)N1CC[C@H](F)C1` [Example 80], for which the results for the IC50 in experiment [1] (setting [3]) and in experiment [2] (setting [4]) were 100 to 2000 nM and under 20 nM, respectively.

For `CCC(CC)(C(=O)N[C@@H](Cc1ccc(OCc2c(Cl)cccc2Cl)cc1)C(=O)O)C(=O)N1C[C@@H](O)[C@@H](O)C1` [Example 81, N-(2-{[(cis-3,4-dihydroxypyrrolidine)-1-yl]carbonyl}-2-ethyl-butanoyl)-O-(2,6-dichlorobenzyl)-L-tyrosine], the IC50 in experiment [1] (setting [3]) is 100 to 2000 nM; in experiment [2] (setting [4]), under 20 nM.

Turning to `CCC(CC)(C(=O)N[C@@H](Cc1ccc(OCc2c(Cl)cccc2Cl)cc1)C(=O)O)C(=O)N1CC(O)C(Cl)C1` (stereo partly drawn) [Example 82], the figures for the IC50 in experiment [1] (setting [3]) and in experiment [2] (setting [4]) were 20 to 100 nM and under 20 nM, respectively.

Regarding `CCC(CC)(C(=O)N[C@@H](Cc1ccc(OCc2c(Cl)cccc2Cl)cc1)C(=O)O)C(=O)N1CC[C@@H](F)C1` [Example 84], the figures for the IC50 in experiment [1] (setting [3]) and in experiment [2] (setting [4]) were 100 to 2000 nM and under 20 nM, respectively.

As for `CSc1ncc(Cl)c(C(=O)Nc2ccc(C[C@H](NC(=O)C3(C(=O)N(C)C)CC3)C(=O)O)cc2)n1` [Example 85, N-[1-N,N-dimethylaminocarbonylcyclopropane-1-ylcarbonyl]-4-({[5-chloro-2-(methylthio)pyrimidine-4-yl]carbonyl}-amino)-L-phenylalanine], the figures for the IC50 in experiment [1] (setting [3]) and in experiment [2] (setting [4]) were 100 to 2000 nM and under 20 nM, respectively.

Take `CN(C)C(=O)C1(C(=O)N[C@@H](Cc2ccc(NC(=O)c3cc(F)c(F)cc3Cl)cc2)C(=O)O)CC1` [Example 86]: the IC50 in experiment [1] (setting [3]) is 100 to 2000 nM; in experiment [2] (setting [4]), 20 to 100 nM.

The term IC50 denotes the concentration needed to halve the response being measured.
